# Patent publication US7855076B2, “Use of discoidin domain receptor 1 (DDR1) and agents that affect the DDR1/collagen pathway” (The United States of America as represented by the …, priority 2002, dated 2010)
# Assays:
# Type in all cases: cell-based, human
# THP-1 cells [1] = assay: Flow cytometry of HLA-DR, CD11c, CD14, CD40 on PMA-treated THP-1 cells
# Description: FIG. 5 is a graph showing the effects of collagen-activation of two DDR1 isoforms on the expression of CD11c, CD14, and CD40. Each cell line was plated at 5×10^6 cells/ml on either uncoated or collagen-coated plates and incubated at 37° C. for 24 hours in the presence of 10 nM PMA. Anti-1β integrin antibody (10 μg/ml) was used to block the effect of 1β integrin-collagen interaction. The percentage of CD11c, CD14, or CD40-positive cells is shown. Data are presented as the mean ±SD from three independent experiments.
# Parental, mock, DDR1a-overexpressing, or DDR1b overexpressing THP-1 cells were plated at 5×10^6 cells/ml on either uncoated or collagen-coated plates and incubated at 37° C. for 24 or 48 hours in the presence of 10 nM PMA. One hundred thousand cells were suspended in 50 μl of cold PBS containing 0.1% NaN3, […] BSA and 200 μg/ml human IgG in a Falcon 2052 tube, and incubated for 10 minutes on ice. One μg of mouse monoclonal antibody against CD11c, CD14 CD40, or HLA-DR, or control mouse IgG were added to each tube and the cells were incubated for another 15 minutes on ice. The cells were washed with PBS, and then incubated with 1 μg of FITC-conjugated goat anti-mouse IgG for 15 minutes on ice. At the end of incubation, propidium iodide (PI) (100 μM) was added to each tube. The cells were washed by PBS, and subsequently analyzed by using a FACS scan (Becton Dickinson). Dead cells, determined by the incorporation of PI, were gated out. Results were processed by using the Cellquest software (Becton Dickinson).
# The cells were then rinsed three times with RPMI 1640 containing 10% FCS, and incubated either with the p38 MAP kinase inhibitor SB203580, the MEK (MAP or ERK kinase) ½ inhibitor PD98059, or dimethylsulfoxide (DMSO) for 30 minutes, followed by an additional 12 hour incubation in the presence of 10 nM PMA plus collagen. The expression of HLA-DR was analyzed by flow cytometry.
# DDR1 mRNA = DDR1 mRNA expression in PBMC by Northern blotting; conditions: 8 hours, TNF-α 5 ng/ml, IL-1β 10 ng/ml, IFN-γ 50 U/ml, GM-CSF 10 ng/ml, LPS 1 μg/ml, PHA 5 μg/ml
# Description: PMN and PBMC were maintained at a density of 5×10^6 cells/ml in the complete medium in six-well tissue culture cluster (Coster, Cambridge, Mass.; 3 ml/well). Total RNA was extracted from each culture by using TRIZOL® Reagent. PolyA mRNA was purified on Oligotex columns (Qiagen, Valencia, Calif.). Northern blot analysis was performed as described (Yoshimura, J. Immunol. 150:5025, 1993), except that ULTRAhyb (Ambion) was used. A human DDR1 cDNA (757-bp) was obtained by PCR from a U-105 human glioblastoma cell line cDNA library and was ligated into the EcoRI/HindIII site of the pBluescript (Stratagene, La Jolla, Calif.). The sense primer was 5′-[…]-3′ (SEQ ID NO: 2; corresponding to residues between 68 and 87 in the nucleotide sequence of the trkE cDNA, GenBank accession number X74979) and the antisense primer was 5′-[…]-3′ (SEQ ID NO: 3; corresponding to residues between 805 and 824 in the nucleotide sequence of the trkE cDNA).
# Freshly isolated PBMC expressed only a low level of DDR1 mRNA. The expression level was increased about eightfold when the cells were incubated in either RPMI 1640 or RPMI 1640 containing 10% FCS.
# p38 MAP kinase = assay: Phosphorylation of p38 MAP kinase in PMA-treated THP-1 cells, Western blotting; conditions: DDR1b-overexpressing cells treated before PMA-treatment
# Description: Parental, mock, DDR1a- or DDR1b-overexpressing THP-1 cells were plated at 5×10^6/ml on uncoated tissue culture plates and stimulated with PMA (10 nM) for 24 hours, and then starved in RMPI 1640 without FCS for 10 hours. Subsequently cells were washed three times with PBS, and then incubated in the presence of 50 μg/ml collagen type I for various times.
# Ten million cells were lysed on ice for 20 minutes in a buffer containing 50 mM NaCl, 20 mM Tris-HCl, 50 mM sodium fluoride, 30 mM Na4P2O7, 5 mM EGTA, 3 mM sodium orthovanadate, 1% Triton X-100, 1 mg/ml leupeptin, 1 mM PMSF, 1 mg/ml aprotinin, 1 mg/ml pepstatinA and 100 μM sodium orthovanadate treated with H2O2. A lysis buffer containing 150 mM NaCl, 50 mM HEPES, 1% Triton-X 10% glycerol, 1 mM sodium fluoride, 1 mM EDTA, 2 mM sodium orthovanadate, 1 mg/ml leupeptin, 1 mM PMSF, 1 mg/ml aprotinin, 1 mg/ml pepstatinA and 100 μM sodium orthovanadate treated with H2O2, was also used for immunoprecipitation with anti-Shc Ab. The lysates were spun in a microcentrifuge for 20 minutes and the supernatants were collected. […]
# Eluted proteins were analyzed on 8% polyacrylamide gels by SDS-PAGE and transferred electrophoretically to nitrocellulose membranes at 150 mA for 1 hour by a semi-dry system. […] To detect phosphorylated or nonphosphorylated p38 MAP kinase or ATF-2, 20 μl of cell lysates were directly mixed with 20 μl of sample buffer and then analyzed.
# Downstream signaling molecules that may play a role in the up-regulation of HLA-DR in collagen-activated PMA-treated DDR1b-overexpressing cells were identified in the following manner. […] Phosphorylation of p38 MAP kinase was first detected 30 minutes after collagen activation of DDR1b-overexpressing cells and the level of phosphorylation increased thereafter. […] Phosphorylation of p38 MAP kinase was not detected in DDR1a-overexpressing cells up to 120 minutes. […] Phosphorylation of other members of the MAP kinase family, ERK1, ERK2, and JNK could not be detected in collagen-activated PMA-treated DDR1b-overexpressing cells. […]
# THP-1 cells [2] = assay: Cytokine and chemokine release from PMA-treated THP-1 cells by ELISA; conditions: DDR1b-overexpressing THP-1 cells, PMA, collagen-coated plates, 48 hours
# Description: The production of DDR1a- or 1b-overexpressing THP-1 cells was previously described (Kamohara et al., FASEB J. 15:2724, 2001). Briefly, the human monocytic leukemic cell line, THP-1, was transduced with control retrovirus containing the vector only (mock-transduced) or retrovirus expressing DDR1a or DDR1b. THP-1 cells transduced by each virus were selected with G418, and cloned by limiting dilution. The cloned THP-1 cells were maintained in RPMI 1640 medium supplemented with 100 μg/ml gentamycin and 10% FCS (complete medium). Cells were plated at 1×10^6/ml and treated with PMA (10 nM) for variable times on uncoated or collagen-coated tissue culture plates for quantification of cytokine or chemokine release.
# In addition, the concentration of MCP-1 in the culture supernatant of each cell line was measured by ELISA. The concentration of MCP-1 was measured in the Lymphokine Testing Laboratory, Clinical Services Program, SAIC-Frederick (Frederick, Md.) by using an enzyme-linked immunosorbent assay (ELISA) kit (R&D Systems, Minneapolis, Minn.) specific for the chemokine.
# In addition, the concentrations of IL-1β, IL-8, and MIP-1α in the culture supernatants of each cell line were quantified by ELISA (FIG. 6). The concentration of IL-1β, IL-8, and MIP-1α were measured in the Lymphokine Testing Laboratory, Clinical Services Program, SAIC-Frederick (Frederick, Md.) by using enzyme-linked immunosorbent assay (ELISA) kits (R&D Systems, Minneapolis, Minn.) specific for each human cytokine and chemokine. […]
compound,measurement,setting,value
"CCCCCCCCCCCCCC(=O)O[C@@H]1[C@@H](C)[C@@]2(O)[C@@H](C=C(CO)C[C@]3(O)C(=O)C(C)=C[C@@H]23)[C@@H]2C(C)(C)[C@]12OC(C)=O [PMA, phorbol 12-myristate 13-acetate, reference compound]",HLA-DR-positive cells,"THP-1 cells [1]; parental, mock, DDR1a- or DDR1b-overexpressing THP-1 cells, uncoated plates, 48 hours",26 to 28%
IL-1β: human recombinant interleukin-1β,level of DDR1 mRNA expression,DDR1 mRNA,further augmented
"C[C@@H]1C[C@@H]([C@H](O)CC2CC(=O)NC(=O)C2)C(=O)[C@@H](C)C1 [CHX, cycloheximide, reference compound]",phosphorylation of p38 MAP kinase in response to collagen,p38 MAP kinase,completely inhibited
COc1cccc(-c2cc(=O)c3ccccc3o2)c1N [PD98059],expression of HLA-DR,"THP-1 cells [1]; collagen-activated PMA-treated DDR1b-overexpressing cells, 24 hours",no effect
same,collagen-induced up-regulation of IL-1β release,THP-1 cells [2],no effect
same,collagen-induced up-regulation of IL-8 release,THP-1 cells [2],no effect
same,collagen-induced up-regulation of MCP-1 release,THP-1 cells [2],no effect
same,collagen-induced up-regulation of MIP-1α release,THP-1 cells [2],no effect
